In ChEMBL document CHEMBL3414567, “Novel hybrid DHPM-fatty acids: synthesis and activity against glioma cell growth in vitro” (Eur J Med Chem, 2015):
The source made the active and inactive calls. The rule behind the calls is not given here.

How the values were obtained:
[1] = tested on: C6; assay: Cytotoxicity against rat C6 cells assessed as reduction of cell viability at 50 uM after 24 hrs by MTT assay; format: functional, cell-based
[2] = tested on: C6; assay: Cytotoxicity against rat C6 cells assessed as reduction of cell viability at 25 uM after 24 hrs by MTT assay; format: functional, cell-based
[3] = Cytotoxicity against Wistar rat organotypic hippocampal slice cultures assessed as neural cell death at 200 uM after 24 hrs by propidium iodide staining-based fluorescence image analysis; set-up: species or system Hippocampus
[4] = Cytotoxicity against human U138MG cells assessed as reduction of cell viability at 50 uM after 24 hrs by MTT assay relative to control; format: functional, U138-MG
[5] = tested on: U138-MG; assay: Cytotoxicity against human U138MG cells assessed as reduction of cell viability after 24 hrs by MTT assay; format: functional, cell-based
[6] = tested on: C6; assay: Cytotoxicity against rat C6 cells assessed as reduction of cell viability after 24 hrs by MTT assay; format: functional, cell-based
[7] = tested on: C6; assay: Cytotoxicity against rat C6 cells assessed as growth inhibition at 150 uM relative to control; format: functional; conditions: read-out: GI
[8] = Cytotoxicity against human U138MG cells assessed as growth inhibition at 150 uM relative to control; format: functional; conditions: U138-MG, read-out: GI
[9] = Cytotoxicity against human U138MG cells assessed as reduction of cell viability at 10 uM after 24 hrs by MTT assay relative to control; format: functional, U138-MG

| SMILES | Activity [1] | Activity [3] | Activity [4] [%] | other results |
| --- | --- | --- | --- | --- |
| CCCCCCCCCCCCCCCCCCOC(=O)C1=C(C)NC(=S)NC1c1cccc(O)c1 (stereo unspecified) | inactive |  |  |  |
| CCCCCCCCCCCCCCCCOC(=O)C1=C(C)NC(=S)NC1c1cccc(O)c1 (stereo unspecified) | Active | Non-toxic | 70 | Activity [2]: Active |
| CCCCCCCC/C=C\CCCCCCCCOC(=O)C1=C(C)NC(=O)NC1c1ccccc1 (stereo unspecified) |  | Non-toxic |  | Activity [5]: Dose-dependent effect; Activity [6]: Dose-dependent effect |
| CCOC(=O)C1=C(C)NC(=S)NC1c1cccc(O)c1 (stereo unspecified) [MONASTROL] |  |  |  | inhibition of growth at 150 µM [7]: 30%; inhibition of growth at 150 µM [8]: 30% |
| CCCCCCCCCCCCCCCCOC(=O)C1=C(C)NC(=O)NC1c1cccc(O)c1 (stereo unspecified) | Active | Non-toxic | 70 | Activity [9]: 50% |
| CCCCCCCC/C=C\CCCCCCCCOC(=O)C1=C(C)NC(=S)NC1c1cccc(O)c1 (stereo unspecified) | Active | Non-toxic | 70 |  |
| CCCCCCCC/C=C\CCCCCCCCOC(=O)C1=C(C)NC(=O)NC1c1cccc(O)c1 (stereo unspecified) | Active | Non-toxic | 70 | Activity [2]: Active |
